PMC6952399, “Structures of lipoprotein signal peptidase II from Staphylococcus aureus complexed with antibiotics globomycin and myxovirescin” (Nature Communications, 2020)
Where “and” joins values, the source holds several entries; their conditions need not be identical. Equal entries are not always repeated.

Molecular target: T1, LspPae (lipoprotein signal peptidase II from Pseudomonas aeruginosa) (Pseudomonas aeruginosa, UniProt Q9HVM5)
T1 construct: made in house
T1 sequence (Q9HVM5 1-169): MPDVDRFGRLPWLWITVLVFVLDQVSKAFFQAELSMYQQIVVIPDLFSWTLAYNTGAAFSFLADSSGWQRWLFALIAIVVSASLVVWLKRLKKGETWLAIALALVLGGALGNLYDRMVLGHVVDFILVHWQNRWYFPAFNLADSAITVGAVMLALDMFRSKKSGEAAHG
Experiment: FRET lipopeptide peptidase assay, LspPae
Type: biochemical
Conditions: for Fluorescence (RFU): FRET substrate + LspA + Myxovirescin; for Rate (RFU/min) / Normalised rate (Vi/V0): replicates 1 and 2; for Ki: estimated Ki’ (apparent inhibition constant)
Description: FRET activity assays. A FRET based assay was developed using a labelled lipopeptide substrate (Supplementary Methods, Supplementary Fig. 3b) to directly monitor the protease activity of LspA. The optimised LspMrs assay buffer included 100 mM Tris/HCl pH 7.8, 150 mM NaCl and 0.09%(w/v) DDM. The corresponding optimized buffer for LspPae included 100 mM MES/NaOH pH 5.6, 150 mM NaCl and 0.05%(w/v) LMNG. All assays were performed at 37 °C.
Reaction mixtures were prepared by vortexing (Clifton, cyclone CM-1) for 2 s and incubated at 37 °C, 800 rpm for 10 to 30 min. […] For dose-response assays, the final DMSO concentration in all reactions was 10%(v/v). Reaction mixtures were pipetted into wells of a 96- (Thermo Scientific) or a 384-well plate (4titude®) and incubated for 10 min at 37 °C in a SpectraMax M3 or a SpectraMax M5e plate reader (Molecular devices) prior to starting the assay. Assays were initiated by adding enzyme to a final concentration in the range 10–300 nM. Total reaction mixture volume was 50 μL. Reactions were monitored by fluorescence (Ex/Em, 320 nm/420 nm) for 30 to 60 min at 37 °C. Initial rates were calculated from the fluorescence intensity versus time progress curves (Supplementary Figs. 5 and 6). Occasionally, lag periods in the progress curves were observed (Supplementary Discussion). In such cases, initial rates were calculated after the lag period had passed (typically 1–5 min) and a steady rate had been established. Dose-response plots to determine IC50 values were generated using Prism® 5 software from GraphPad.
It was possible to convert units of fluorescence change into moles of substrate consumed or products formed because pure products of LspA action on Abz-LALAGC*SS-nY-NH2 had been synthesized and were available. These were used to create a standard curve of fluorescence versus moles of the two products in equimolar amounts and to calculate specific activity values. […]
One consequence of LspMrs having a relatively low specific activity is that, in order to get a reliable signal in activity assays, it was necessary to raise enzyme concentration. For kinetic measurements generally, it is desirable to use an enzyme concentration that is much lower than that of the substrate. In this situation, the usual assumption that added and free substrate concentrations are equal is valid. At high enzyme concentrations [E] therefore, and especially in the case of tight ligand binding where the inhibition constant, Ki, is small, a measured IC50 is limited to [E]/2 4–6. In such circumstances, a meaningful IC50 or Ki can only be obtained with considerable effort. With a few exceptions in the current study, this situation prevailed with both LspA orthologs where IC50 values came close to [E]/2 (Table 1 and Supplementary Table 3, Supplementary Fig. 6). […]
Inhibition of LspA from E. coli by globomycin has been described as non-competitive7. The evidence provided in support o f this conclusion included an insensitivity of IC 50 to substrate concentration and the fact that the Vmax but not the K m changed with globomycin concentration. It was of interest to determine if a similar mode of inhibition applied to LspPae and LspMrs. From published work7–9 and from FRET-based kinetics measurements reported here, we know that globomycin binds with high affinity (Supplementary Fig. 6). Tight binding means that a more in-depth analysis must be carried out in order to identify inhibition type. For such analysis, it is important to know active enzyme concentration accurately. Fortunately, it was possible to use the property of tight inhibitor binding to measure the concentration of active enzyme ( Supplementary Fig. 18a). In the case of LspPae, the estimated value and the concentration determined spectroscopically agreed remarkably well. Parenthetically we note that knowing active LspPae concentration accurately enabled a characterization of the myxovirescin sample used in this study. Myxovirescin also binds tightly to LspA (Supplementary Fig. 6). […]

[1] = Suppl. Fig. 18b, [Myxovirescin] 0.02 μM
[2] = Suppl. Fig. 18b, [Myxovirescin] 0.05 μM
[3] = Suppl. Fig. 18b, [Myxovirescin] 0.08 μM
[4] = Suppl. Fig. 18b, [Myxovirescin] 0.1 μM
[5] = Suppl. Fig. 18b, [Myxovirescin] 0.12 μM
[6] = Suppl. Fig. 18b, [Myxovirescin] 0.15 μM
[7] = Suppl. Fig. 18b, [Myxovirescin] 0.25 μM
[8] = Suppl. Fig. 18c, [Myxovirescin] nominal conc. 0.02 μM, corrected conc. 0.01454 μM
[9] = Suppl. Fig. 18c, [Myxovirescin] nominal conc. 0.05 μM, corrected conc. 0.03635 μM
[10] = Suppl. Fig. 18c, [Myxovirescin] nominal conc. 0.08 μM, corrected conc. 0.05816 μM
[11] = Suppl. Fig. 18c, [Myxovirescin] nominal conc. 0.1 μM, corrected conc. 0.0727 μM
[12] = Suppl. Fig. 18c, [Myxovirescin] nominal conc. 0.12 μM, corrected conc. 0.08724 μM
[13] = Suppl. Fig. 18c, [Myxovirescin] nominal conc. 0.15 μM, corrected conc. 0.10905 μM
[14] = Suppl. Fig. 18c, [Myxovirescin] nominal conc. 0.25 μM, corrected conc. 0.18175 μM

## CCCC1OC(=O)C(C)CC(C)CCCCC(=O)CCCC(CC)C=CC=C(COC)CCC(O)C(O)CC(O)CNC1=O (centres unmarked) [myxovirescin, myxovirescin A1]
5-fold molar excess of antibiotic added 20 to 30 min after start of reaction
  inhibitor on-rates: fast
Time 27 min
  Fluorescence (RFU): 524.203 RFU
Time 27.5 min
  Fluorescence (RFU): 527.644 RFU
Time 28 min
  Fluorescence (RFU): 525.326 RFU
Time 28.5 min
  Fluorescence (RFU): 532.036 RFU
Time 29 min
  Fluorescence (RFU): 530.446 RFU
Time 29.5 min
  Fluorescence (RFU): 520.770 RFU
Time 30 min
  Fluorescence (RFU): 525.266 RFU
Time 30.5 min
  Fluorescence (RFU): 523.492 RFU
Time 31 min
  Fluorescence (RFU): 522.555 RFU
Time 31.5 min
  Fluorescence (RFU): 520.169 RFU
Time 32 min
  Fluorescence (RFU): 526.741 RFU
Time 32.5 min
  Fluorescence (RFU): 523.010 RFU
Time 33 min
  Fluorescence (RFU): 519.722 RFU
Time 33.5 min
  Fluorescence (RFU): 528.885 RFU
Time 34 min
  Fluorescence (RFU): 517.843 RFU
Time 34.5 min
  Fluorescence (RFU): 518.721 RFU
Time 35 min
  Fluorescence (RFU): 516.893 RFU
Time 35.5 min
  Fluorescence (RFU): 521.148 RFU
Time 36 min
  Fluorescence (RFU): 519.865 RFU
Time 36.5 min
  Fluorescence (RFU): 522.746 RFU
Time 37 min
  Fluorescence (RFU): 519.603 RFU
Time 37.5 min
  Fluorescence (RFU): 522.440 RFU
Time 38 min
  Fluorescence (RFU): 518.255 RFU
Time 38.5 min
  Fluorescence (RFU): 516.274 RFU
Time 39 min
  Fluorescence (RFU): 516.879 RFU
Time 39.5 min
  Fluorescence (RFU): 521.400 RFU
Time 40 min
  Fluorescence (RFU): 509.974 RFU
Time 40.5 min
  Fluorescence (RFU): 516.718 RFU
Time 41 min
  Fluorescence (RFU): 513.520 RFU
Time 41.5 min
  Fluorescence (RFU): 514.018 RFU
Time 42 min
  Fluorescence (RFU): 520.839 RFU
Time 42.5 min
  Fluorescence (RFU): 520.491 RFU
Time 43 min
  Fluorescence (RFU): 514.424 RFU
Time 43.5 min
  Fluorescence (RFU): 516.271 RFU
Time 44 min
  Fluorescence (RFU): 509.335 RFU
Time 44.5 min
  Fluorescence (RFU): 511.506 RFU
Time 45 min
  Fluorescence (RFU): 512.926 RFU
Time 45.5 min
  Fluorescence (RFU): 515.088 RFU
Time 46 min
  Fluorescence (RFU): 509.497 RFU
Time 46.5 min
  Fluorescence (RFU): 509.153 RFU
Time 47 min
  Fluorescence (RFU): 505.807 RFU
Time 47.5 min
  Fluorescence (RFU): 508.613 RFU
Time 48 min
  Fluorescence (RFU): 508.252 RFU
Time 48.5 min
  Fluorescence (RFU): 514.611 RFU
Time 49 min
  Fluorescence (RFU): 508.852 RFU
Time 49.5 min
  Fluorescence (RFU): 511.333 RFU
Time 50 min
  Fluorescence (RFU): 507.505 RFU
Time 50.5 min
  Fluorescence (RFU): 508.404 RFU
Time 51 min
  Fluorescence (RFU): 511.832 RFU
IC50, 20 nM LspPae, substrate 5 µM
  IC50: 9.76 nM and 12.3 nM
IC50, 20 nM LspPae, substrate 7.5 µM
  IC50: 10.4 nM and 12.9 nM
IC50, 20 nM LspPae, substrate 10 µM
  IC50: 11.1 nM and 14.4 nM
IC50, 20 nM LspPae, substrate 15 µM
  IC50: 8.51 nM and 11.1 nM
IC50, 20 nM LspPae, substrate 20 µM
  IC50: 9.14 nM and 13.9 nM
IC50, 20 nM LspPae, substrate 30 µM
  IC50: 11.4 nM and 13.8 nM
IC50, FRET, 0.1 µM enzyme, 30 µM substrate, initial rates
  IC50: 53 nM
IC50, LspPae concentration 10 nM
  IC50: 4.1 nM and 5 nM
IC50, LspPae concentration 20 nM
  IC50: 13.5 nM and 21.2 nM
IC50, LspPae concentration 40 nM
  IC50: 20.3 nM and 26.1 nM
IC50, LspPae concentration 60 nM
  IC50: 24.5 nM and 34.1 nM
IC50, LspPae concentration 80 nM
  IC50: 41.7 nM and 50.6 nM
IC50, LspPae concentration 100 nM
  IC50: 49.2 nM and 55.8 nM
LspPae block, log [myxo] (uM) -0.82
  Rate (RFU/min): 0.2 RFU/min
LspPae block, log [myxo] (uM) -0.92
  Rate (RFU/min): 0.1 RFU/min and 0.2 RFU/min
LspPae block, log [myxo] (uM) -1.00
  Rate (RFU/min): 0.1 RFU/min and 0.2 RFU/min
LspPae block, log [myxo] (uM) -1.10
  Rate (RFU/min): 1.3 RFU/min and 1.5 RFU/min
LspPae block, log [myxo] (uM) -1.30
  Rate (RFU/min): 5.8 RFU/min and 6.2 RFU/min
LspPae block, log [myxo] (uM) -1.70
  Rate (RFU/min): 10.2 RFU/min and 10.1 RFU/min
LspPae block, log [myxo] (uM) -2.00
  Rate (RFU/min): 11.4 RFU/min and 11.5 RFU/min
[1]
  Normalised rate (Vi/V0): 0.8634 and 0.8943
  Rate (RFU/min): 45.52 RFU/min and 45.67 RFU/min
[2]
  Normalised rate (Vi/V0): 0.6591 and 0.6875
  Rate (RFU/min): 34.75 RFU/min and 35.11 RFU/min
[3]
  Normalised rate (Vi/V0): 0.4365 and 0.4511
  Rate (RFU/min): 23.01 RFU/min and 23.04 RFU/min
[4]
  Normalised rate (Vi/V0): 0.2771 and 0.2863
  Rate (RFU/min): 14.61 RFU/min and 14.62 RFU/min
[5]
  Normalised rate (Vi/V0): 0.09825 and 0.09947
  Rate (RFU/min): 5.18 RFU/min and 5.08 RFU/min
[6]
  Normalised rate (Vi/V0): 0.01309 and 0.02976
  Rate (RFU/min): 0.69 RFU/min
[7]
  Normalised rate (Vi/V0): 0.01574 and 0.02741
  Rate (RFU/min): 0.83 RFU/min and 1.4 RFU/min
[8]
  Normalised rate (Vi/V0): 0.8634 and 0.8943
  Rate (RFU/min): 45.52 RFU/min and 45.67 RFU/min
[9]
  Normalised rate (Vi/V0): 0.6591 and 0.6875
  Rate (RFU/min): 34.75 RFU/min and 35.11 RFU/min
[10]
  Normalised rate (Vi/V0): 0.4365 and 0.4511
  Rate (RFU/min): 23.01 RFU/min and 23.04 RFU/min
[11]
  Normalised rate (Vi/V0): 0.2771 and 0.2863
  Rate (RFU/min): 14.61 RFU/min and 14.62 RFU/min
[12]
  Normalised rate (Vi/V0): 0.09825 and 0.09947
  Rate (RFU/min): 5.18 RFU/min and 5.08 RFU/min
[13]
  Normalised rate (Vi/V0): 0.01309 and 0.02976
  Rate (RFU/min): 0.69 RFU/min
[14]
  Normalised rate (Vi/V0): 0.01574 and 0.02741
  Rate (RFU/min): 0.83 RFU/min and 1.4 RFU/min
Average IC50, 20 nM LspPae, substrate 2.5 or 5 to 30 µM
  IC50: ~10 nM
Morrison analysis, 30 µM substrate, 0.1 µM LspPae
  Ki: 0.0476 ± 0.128 nM
From dependence of IC50 on enzyme concentration, IC50 = Ki’ + [E]/2
  Ki: 2.69 ± 2.8 nM
